Residues, ends and D or L forms follow the SMILES beside them.
Experiments:
NS5 [1] = experiment: NS5-specific activation of splenic CD3+ lymphocytes (3H-thymidine incorporation) after peptide pre-injection and NS5 vaccination; assay type: in vivo, C57BL/6 mice
Procedure: (§1) Peptide of SEQ ID NO:1 is emulsified in complete Freund's adjuvant and injected subcutaneously at a dose of 100 μg in a series of C57BL/6 mice, followed after 2 weeks by the same injection in incomplete Freund's adjuvant. A control group is injected according to the same schedule with adjuvant alone.
(§2) Two weeks after the last injection both groups of mice are treated by a subcutaneous injection of NS5 protein in alum, repeated every 2 weeks four times.
(§3) The spleen of all mice is obtained one month after the last injection and the population of CD3+ lymphocytes isolated by FACS sorting.
Cells are then maintained in culture in the presence of antigen-presenting cells loaded with NS5 and the proportion of activated cells numbered after 6 days by incorporation of 3H-thymidine.

NS5 [2] = experiment: Detection of NS5-specific NKT cells (PLZF staining) with JAWS2 presenting cells; assay type: in vivo, C57BL/6 mice; conditions: CD3+ cells incubated with JAWS2 presenting cells
Procedure: as §1, §2, §3
In parallel experiments CD3+ cells are incubated with JAWS2 as presenting cells.

NS5 [3] = experiment: Same NS5 experiment repeated in BALB/c mice; assay type: in vivo
[4] = system: hemagglutinin from influenza A virus; set-up: species or system C57BL/6 mice; conditions: mouse, in vivo
[5] = system: hemagglutinin from influenza A virus; set-up: species or system C57BL/6 mice; conditions: mouse, in vivo; remark: listed apart in the source
[6] = system: hemagglutinin from influenza A virus; set-up: species or system C57BL/6 mice; conditions: mouse, in vivo; remark: listed apart in the source
SARS-CoV-2 S protein [7] = experiment: Splenocyte immune response towards S protein after peptide pretreatment and S protein immunization; assay type: in vivo, C57BL/6 mice
Procedure: (§4) Peptide of SEQ ID NO:3 is used to immunize C57BL/6 mice at a dose of 100 μg emulsified in complete Freund's adjuvant, followed by a second injection of 100 μg in incomplete Freund's adjuvant 3 weeks later. A control group receives only the adjuvant.
(§5) Both groups of mice are then immunized with 100 μg of S protein in alum, administered at 2-week intervals, starting 3 weeks after injection of peptide of SEQ ID NO:3 (or adjuvant), for a total of 4 injections at 2 weeks interval.
(§6) The immune response towards S protein is then evaluated on splenocytes retrieved either 2 or 6 months after the last injection and titers of specific antibodies are evaluated on serum.

SARS-CoV-2 S protein [8] = experiment: Specific anti-S protein antibody titers and isotypes in serum; assay type: in vivo, C57BL/6 mice; conditions: for specific anti-S protein antibody titers: vs control
Procedure: as §4, §5, §6

HSV = experiment: Cellular immune response towards live-attenuated HSV vaccine after peptide pre-immunization; assay type: in vivo, BALB/c mice; conditions: one month after last injection
Procedure: BALB/c mice are immunized in footpath with 100 μg of peptide of SEQ ID NO:5 emulsified in complete Freund's adjuvant, and this injection is repeated once after an interval of 2 weeks, the second injection being made in incomplete Freund's adjuvant. A control group of BALB/c mice is treated with adjuvant alone.
All mice then receive a commercial preparation of live-attenuated HSV on 2 occasions separated by one month.
One month after the last injection, the immune response towards the vaccine is compared between the 2 groups.

Coxsackie B4-V = Coxsackie B4-V infection, pancreas cellular infiltration / pancreatitis; assay type: in vivo, BALB/c mice
Procedure: BALB/c mice are immunized by footpath injection of 100 μg of peptide of SEQ ID NO:2 emulsified in Freund's adjuvant, on 2 occasions at a 2-weeks interval. A control group is injected with the adjuvant alone.
All mice are then immunized with the full polyprotein adsorbed on alum, using 100 μg per injection, for a total of 4 injections administered at an interval of 2 weeks.
Three weeks after the last injection, all mice are infected with 50 PFU of the B4-V strains in peritoneum.
Within 3 days after infection, the pancreas of 50% of the mice is isolated and examined for cellular infiltration. All mice in the control group show massive infiltration by mononuclear cells in the acini.

[9] = C57BL/6, vs adjuvant-only control

AG-HGQVDNF-SL [peptide of SEQ ID NO:1]
total number of NS5-specific cells (NS5 [1]; C57BL/6, 100 μg peptide s.c. in CFA then IFA before NS5 in alum, vs adjuvant-only control): significantly higher | number of NS5-specific CD4 cells (NS5 [1]; [9]): higher number is observed | number of NS5-specific CD8 cells (NS5 [1]; [9]): highly significant | variation in numbers of CD4, CD8 and NKT cells between individuals and between strains (NS5 [1]; C57BL/6 and BALB/c, large variations in control groups): very little variation | NS5-specific NKT cells detected by PLZF staining (NS5 [2]): found only in the group of mice which has been pre-sensitized with peptide of SEQ ID NO:1 | result of the same experiment in BALB/c mice (NS5 [3]): essentially the same results

GL-FGAIAGF-IE [peptide of SEQ ID NO:4]
type of immune response towards hemagglutinin (CD8+, NK and NKT cells) [4]: dominated by a Th1-like and cytotoxic response | isotype distribution of anti-hemagglutinin antibodies in serum [5]: high concentrations of IgG2a | ratio of IFN-gamma over IL-4 production [6]: high ratio of IFN-gamma over IL-4

ATR FASVYAW NRK (FASVYAWNRK) [peptide of SEQ ID NO:3]
number of CD8+ T cells relative to CD4+ T cells (SARS-CoV-2 S protein [7]; 2 months after last injection, reverse in control group): outweigh the number of CD4+ T cells | number of CD8+ T cells relative to CD4+ T cells (SARS-CoV-2 S protein [7]; 6 months after last injection): same trend towards preferential CD8+ T cells | numbers of CD3+ lymphocytes towards protein S (SARS-CoV-2 S protein [7]; vs control mice): significantly higher numbers | specific anti-S protein antibody titers (SARS-CoV-2 S protein [8]; 2 months after end of immunization): significantly higher titers | isotypic distribution of anti-S protein antibodies (SARS-CoV-2 S protein [8]; 2 months, vs control group): dramatic shift from IgG1 in the control group towards IgG2a | specific anti-S protein antibody titers (SARS-CoV-2 S protein [8]; 6 months after end of immunization): significantly higher titers | isotypic distribution of anti-S protein antibodies (SARS-CoV-2 S protein [8]; after 6 months): shift was maintained

CC(C)C[C@H](NC(=O)[C@H](Cc1c[nH]cn1)NC(=O)[C@H](CC(C)C)NC(=O)[C@H](Cc1ccccc1)NC(=O)[C@H](CC(C)C)NC(=O)[C@@H](N)C(C)C)C(=O)N[C@@H](Cc1ccc(O)cc1)C(=O)N[C@@H](CC(C)C)C(=O)N[C@@H](Cc1ccccc1)C(=O)N[C@@H](CC(C)C)C(=O)N[C@H](C(=O)O)[C@@H](C)O [peptide of SEQ ID NO:5, VL-FLHLYLF-LT] (H-VLFLHLYLFLT-OH)
cells sharing a cytotoxicity potential (CD8+ T cells, NK cells, NKT cells) (HSV): significant expansion

EK-FRDIRGF-LA [peptide of SEQ ID NO:2]
pancreatitis signs (Coxsackie B4-V; day 10 after infection, control: persisting infiltration, disappearance of acini structure): complete resolution of pancreatitis signs | pancreas cellular infiltration by mononuclear cells in the acini (Coxsackie B4-V; within 3 days after infection with 50 PFU B4-V, control: massive infiltration): moderate infiltration
